The text below walks through data of article PMC9416494, “Cinnamaldehyde and Curcumin Prime Akt2 for Insulin-Stimulated Activation” (Nutrients, 2022).

Read-outs that look alike come from different tables or passages of the source.

The subject of one data set is Akt2. Description: cIEF immunoassay of Akt2 and p-Akt2 (S474) in primary human subcutaneous preadipocytes. The format is cell-based. The conditions noted are these: for change of Akt2 cIEF electropherogram versus untreated control / change of Akt2 cIEF electropherogram versus insulin alone / increase of p-Akt2 (S474) compared to insulin treatment alone / p-Akt2 (S474) induction: 30 min; for change of Akt2 cIEF electropherogram versus untreated control: insulin 100 nM; for change of Akt2 cIEF electropherogram versus untreated control / increase of p-Akt2 (S474) compared to insulin treatment alone / p-Akt2 (S474) induction: cinnamaldehyde 40 µM, curcumin 20 µM; for change of Akt2 cIEF electropherogram versus untreated control / p-Akt2 (S474) induction: okadaic acid 5 nM, PTP1Bi 4 µM; for change of Akt2 cIEF electropherogram versus insulin alone / increase of p-Akt2 (S474) compared to insulin treatment alone: together with insulin 100 nM; for p-Akt2 (S474) induction: treatment without added insulin (insulin itself 100 nM). The method, then:
(§1) Primary human subcutaneous preadipocytes were obtained from Zen-Bio (Cat. No. SP-F-1, Lot #L031219A, Durham, NC, USA) and maintained at 37 °C and 5% CO2 in growth medium comprising Minimum Essential Medium α (cat. no. 12571063, Thermo Fisher Scientific, Waltham, MA, USA) supplemented with 10% fetal bovine serum, 100 units/mL penicillin, and 100 µg/mL streptomycin. […] The donor was undergoing elective surgery and signed an Institutional Review Board validated donor consent form that specifically lists both the intended uses for non-clinical research and confirms the procedures for processing the samples are Standard Operating Procedure managed Good Laboratory Practices protocols in compliance with ethical regulations. All samples were collected and processed in the United States.
(§2) Existing growth media of primary human subcutaneous preadipocytes were replaced with new growth media premixed with treatment compounds and incubated at 37 °C and 5% CO2 for 30 min prior to the collection of total cell extracts. The final concentrations of treatment compounds were as follows: insulin (100 nM, Humulin R, Eli Lilly, Indianapolis, IN, USA), cinnamaldehyde (40 µM, cat. no. W228613, Sigma Aldrich, St. Louis, MO, USA), curcumin (20 µM, cat. no. C7727, Sigma Aldrich, St. Louis, MO, USA), okadaic acid (5 nM, cat. no. ab120375, Cambridge, MA, USA), and PTP1Bi (4 µM, cat. no. 15782, Cayman Chem, Ann Arbor, MI, USA). The concentrations of treatment compounds were selected based on their ability to induce maximal effects on the PTM profile of Akt2, which were experimentally determined.
(§3) Approximately one million cells were incubated on ice for 10 min with 60 µL of lysis buffer (cat. no. 040-764, ProteinSimple, Santa Clara, CA, USA), sonicated 4 times for 5 s each, mixed by rotation for 2 h at 4 °C, and centrifuged at 12,000 rpm in an Eppendorf 5430R microfuge for 20 min at 4 °C. The supernatant was collected as the cell lysate. The total protein concentration in the cell lysate was determined with a Bradford protein assay and adjusted to a final concentration of 0.3 µg/µL with separation gradients (cat. no. Premix G2, pH 5–8, ProteinSimple, Santa Clara, CA, USA) for charge-based cIEF immunoassays.
(§4) Cell lysates in separation gradients were loaded into 384-well assay plates (cat. no. 040-663, ProteinSimple, Santa Clara, CA, USA), which were preloaded with primary and secondary antibodies and chemiluminescent substrates. Charge-based protein separation and detection in individual capillaries were performed using the default protocols of the NanoPro 1000 system (ProteinSimple, Santa Clara, CA, USA). HSP70 was used as the loading control. All cIEF immunoassays were performed in triplicate for each protein, and triplicate experiments were performed for each treatment condition, producing nine repeated measurements per protein analyte.
(§5) Protein abundance was quantified using the Compass software from ProteinSimple (Santa Clara, CA, USA) and normalized with that of HSP70 for cIEF immunoassays or β-actin for capillary Western assays. HSP70 and β-actin served as loading controls.

For the next data set, the system named is Akt3. Description: cIEF immunoassay of Akt3 in primary human subcutaneous preadipocytes. The format is cell-based. The conditions noted are these: for effect on Akt3 cIEF electropherogram: 30 min; for effect on insulin-stimulated phosphorylation of Akt3: with insulin. The method, then: as §1, §2, §3, §4, §5
In another data set the target is T1, PP2A (Homo sapiens, UniProt P67775).
T1 construct: purchased Cayman Chem 10011237
T1 sequence (P67775 1-308 limits assumed): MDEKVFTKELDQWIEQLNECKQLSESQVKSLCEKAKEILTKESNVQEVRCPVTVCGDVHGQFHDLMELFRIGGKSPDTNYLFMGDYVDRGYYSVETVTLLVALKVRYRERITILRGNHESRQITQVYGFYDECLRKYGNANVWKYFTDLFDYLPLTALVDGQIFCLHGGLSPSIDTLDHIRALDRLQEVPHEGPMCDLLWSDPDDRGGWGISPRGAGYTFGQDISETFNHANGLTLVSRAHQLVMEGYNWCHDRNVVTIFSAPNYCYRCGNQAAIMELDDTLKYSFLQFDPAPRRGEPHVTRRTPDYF
Description: Ser/Thr phosphatase assay (malachite green), recombinant PP2A. Format: biochemical. The method, then: (§6) Ser/Thr phosphatase assay kit (cat. no. 17-127, Millipore, Temecula, CA, USA) was used to detect PP2A activity by dephosphorylation of the phosphopeptide R-K-pT-I-R-R using malachite green detection. Likewise, a protein tyrosine phosphatase assay kit (cat. no. 17-125, Millipore, Burlington, MA, USA) was used to detect PTP1B activity by dephosphorylation of the phosphopeptide R-R-L-I-E-D-A-E-pY-A-A-R-G using malachite green detection. Experimental procedures were performed according to the manufacturer’s protocols. Recombinant PP2A (cat. no. 10011237, Cayman Chem, Ann Arbor, MI, USA) and PTP1B (cat. no. 10010896, Cayman Chem, Ann Arbor, MI, USA) were used. Dephosphorylation reactions were performed at room temperature for 30 min in the presence of serially diluted okadaic acid, PTP1Bi, cinnamaldehyde, or curcumin. The reactions were terminated by the addition of […] malachite green solution and allowed color development to proceed for 15 min at room temperature. Phosphatase activities were measured using absorbance at 650 nm in a microtiter plater reader (Synergy 2, BioTek, Winooski, VT, USA).

For a further data set, the system named is ERK1/2. Description: cIEF immunoassay of ERK1/2 phosphorylation. The format is cell-based, human. The conditions noted are these: following treatment. As for the experimental part: as §2
Cell lysates in separation gradients were loaded into 384-well assay plates (cat. no. 040-663, ProteinSimple, Santa Clara, CA, USA), which were preloaded with primary and secondary antibodies and chemiluminescent substrates. Charge-based protein separation and detection in individual capillaries were performed using the default protocols of the NanoPro 1000 system (ProteinSimple, Santa Clara, CA, USA). HSP70 was used as the loading control. […]

The subject of data set [1] is pan-Akt. Kind of data set: cIEF immunoassay of pan-Akt phosphoisoforms in primary human subcutaneous preadipocytes. The format is cell-based. The note with it: 30 min, versus untreated control. As for the experimental part:
as §1, §2, §3, §4, §5

Another data set has as its system Akt1. Kind of data set: cIEF immunoassay of Akt1 in primary human subcutaneous preadipocytes. The note with it: for effect on Akt1 cIEF electropherogram: 30 min; for effect on insulin-stimulated phosphorylation of Akt1: with insulin, cIEF of p-Akt1 (S473) and standard Western. The format is cell-based. The method, then: as §1, §2, §3, §4, §5
The target in a further data set is T2, PTP1B (Homo sapiens, UniProt P18031).
T2 construct: purchased Cayman Chem 10010896
T2 sequence (P18031 1-321 limits assumed): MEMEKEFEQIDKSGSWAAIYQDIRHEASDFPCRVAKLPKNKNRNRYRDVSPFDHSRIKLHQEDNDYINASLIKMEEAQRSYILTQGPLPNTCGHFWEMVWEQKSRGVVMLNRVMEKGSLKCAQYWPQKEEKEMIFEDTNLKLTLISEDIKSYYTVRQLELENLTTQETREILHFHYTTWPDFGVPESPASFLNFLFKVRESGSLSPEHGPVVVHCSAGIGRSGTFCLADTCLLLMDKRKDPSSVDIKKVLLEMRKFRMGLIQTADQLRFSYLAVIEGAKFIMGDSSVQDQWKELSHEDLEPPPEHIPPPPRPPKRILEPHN
Description: Protein tyrosine phosphatase assay (malachite green), recombinant PTP1B. Format: biochemical. The note with it: 30 min, room temperature, read-out: IC50, PTP1B inhibition. The method, then: as §6

For data set [2], the system named is pan-Akt. Description: Capillary Western immunoassay of p-Akt in primary human subcutaneous preadipocytes. Format: cell-based. The conditions noted are these: insulin 30 min. As for the experimental part: as §1, §2
The total protein concentration in the cell lysate was determined with a Bradford protein assay and adjusted to a final concentration of 0.4 µg/µL with denaturing buffers (cat. no. PS-ST01EZ or PS-ST03EZ, ProteinSimple, Santa Clara, CA, USA) for size-based Western immunoassays. […]
Protein abundance was quantified using the Compass software from ProteinSimple (Santa Clara, CA, USA) and normalized with that of HSP70 for cIEF immunoassays or β-actin for capillary Western assays. […]

[3] abbreviates: recombinant PP2A, 30 min, room temperature, read-out: IC50, PP2A inhibition.

For the compound `O=c1cc(N2CCOCC2)oc2c(-c3ccccc3)cccc12` [LY294002, reference compound], in the data set on Akt2 (PI3K inhibitor with cinnamaldehyde or curcumin), the “effect on cinnamaldehyde or curcumin-induced phosphorylation of Akt2” value is recorded as “unable to inhibit”. Further, the “effect on insulin-stimulated phosphorylation of Akt2” value in the data set on Akt2 (PI3K inhibitor with insulin) is given as “abrogates”.
What is called IC50 is the concentration that inhibits the measured activity by half. Consider `O=C/C=C/c1ccccc1` [cinnamaldehyde], for which, in the data set on Akt3, the “effect on Akt3 cIEF electropherogram” value was “neither cinnamaldehyde or curcumin had any observable effect” and the “effect on insulin-stimulated phosphorylation of Akt3” value is given as “no observable effect”. In addition, at PP2A (setting [3]), the IC50 is around 40 µM. In addition, the ERK1/2 phosphorylation entry in the data set on ERK1/2 is listed as “increased ERK1/2 phosphorylation”. Moreover, in the data set on Akt2, the “change of Akt2 cIEF electropherogram versus untreated control” value is reported as “new peak at pI 5.41”, the “change of Akt2 cIEF electropherogram versus insulin alone” value is “induced the appearance of a new Akt2 isoform at pI 5.15”, the “increase of p-Akt2 (S474) compared to insulin treatment alone” value is “approximately 3.5 fold” and the “p-Akt2 (S474) induction” value is recorded as “Neither untreated control preadipocytes or preadipocytes treated with cinnamaldehyde or curcumin had a detectable level”. For the same compound, in the data set on pan-Akt [1], the “abundance of p-Akt (S124) at pI 5.74” value is reported as “increased the abundance”, the “abundance of p-Akt (S246) at pI 5.74” value is given as “increased the abundance”, the “abundance of p-Akt (Y475) at pI 5.74” value is “increased the abundance” and the “effect on p-Akt (T308)” value is listed as “no observable effect”. Also, the “p-Akt (T450) phosphorylation” value in the data set on pan-Akt [1] was “increased phosphorylation at the T450 residue”. Besides, in the data set on Akt1, the “effect on Akt1 cIEF electropherogram” value is “neither cinnamaldehyde or curcumin had any observable effect” and the “effect on insulin-stimulated phosphorylation of Akt1” value is recorded as “promote insulin-stimulated phosphorylation of Akt1”. In addition, at PTP1B, the IC50 is around 4 µM.
As to `COc1cc(/C=C/C(=O)CC(=O)/C=C/c2ccc(O)c(OC)c2)ccc1O` [curcumin], in the data set with Akt3, the “effect on Akt3 cIEF electropherogram” value is “neither cinnamaldehyde or curcumin had any observable effect” and the “effect on insulin-stimulated phosphorylation of Akt3” value is “no observable effect”. Further, the IC50 at PP2A (setting [3]) was around 20 µM. The ERK1/2 phosphorylation result in the data set with ERK1/2 is recorded as “increased ERK1/2 phosphorylation”. Besides, in the data set on Akt2, the “change of Akt2 cIEF electropherogram versus untreated control” value is given as “new peak at pI 5.41”, the “change of Akt2 cIEF electropherogram versus insulin alone” value is recorded as “induced the appearance of a new Akt2 isoform at pI 5.15”, the “increase of p-Akt2 (S474) compared to insulin treatment alone” value is given as “approximately 3.5 fold” and the “p-Akt2 (S474) induction” value is “Neither untreated control preadipocytes or preadipocytes treated with cinnamaldehyde or curcumin had a detectable level”. In addition, in the data set with pan-Akt [1], the “abundance of p-Akt (S124) at pI 5.74” value was “increased the abundance”, the “abundance of p-Akt (S246) at pI 5.74” value is listed as “increased the abundance”, the “abundance of p-Akt (Y475) at pI 5.74” value is reported as “increased the abundance” and the “effect on p-Akt (T308)” value is on record as “no observable effect”. Further, in the data set with pan-Akt [1], the “p-Akt (T450) phosphorylation” value is given as “increased phosphorylation at the T450 residue”. Also, in the data set with Akt1, the “effect on Akt1 cIEF electropherogram” value was “neither cinnamaldehyde or curcumin had any observable effect” and the “effect on insulin-stimulated phosphorylation of Akt1” value is reported as “promote insulin-stimulated phosphorylation of Akt1”. Besides, the IC50 on PTP1B is around 25 µM.
Take `C=C1[C@@H](O)[C@@H]2O[C@]3(CC[C@H](/C=C/[C@@H](C)[C@@H]4CC(C)=C[C@@]5(O[C@H](C[C@@](C)(O)C(=O)O)CC[C@H]5O)O4)O3)CC[C@H]2O[C@@H]1[C@@H](O)C[C@H](C)[C@H]1O[C@@]2(CCCCO2)CC[C@H]1C` [okadaic acid, reference compound]: at PP2A, the IC50 is around 0.0005 µM. Further, in the data set with Akt2, the “change of Akt2 cIEF electropherogram versus untreated control” value is recorded as “induced the appearance of a new Akt2 isoform at pI 5.20” and the “p-Akt2 (S474) induction” value is recorded as “Neither okadaic acid nor PTP1Bi treatment individually was capable of inducing”.
Turning to insulin [reference compound], in the data set on Akt3, the “effect on Akt3 cIEF electropherogram” value is “induced the appearance of new Akt2 and Akt3 isoforms at low pI values”. In the data set on pan-Akt [2], the “abundance of p-Akt (S473)” value is “increased the abundance”, the “abundance of p-Akt (T308)” value was “increased the abundance” and the “abundance of p-Akt (T450)” value was “increased the abundance”. Besides, in the data set on Akt2, the “change of Akt2 cIEF electropherogram versus untreated control” value was “pI 5.20 and 5.30”; the “p-Akt2 (S474) induction” value was “induced the appearance of p-Akt2 (S474)”. In the data set on Akt1, the “effect on Akt1 cIEF electropherogram” value is “no observable effect”.
